# Results from ChEMBL document CHEMBL5505985 (Eur J Med Chem, 2024).
# Activity calls are given as the source filed them. The rule behind the calls is not given here.
# Experiments:
# RAW264.7 [1] = test: Inhibition of MAPK signalling pathway in LPS induced mouse RAW264.7 cells assessed as effect on p38 phosphorylation level at 10 to 30 uM preincubated for 1 hr followed by LPS stimulation and measured after 30 mins by Westernblot analysis; type: cell-based; conditions: dose 10-30 µM, time 1.5 hrs
# Mus musculus [2] = test: Antiinflammatory activity against DSS-induced ulcerative colitis BALB/c mouse assessed as amelioration of crypt architecture loss at 0.25 mg/kg, po for 5 days and measured after 12 days; type: functional, organism-based; conditions: time 12.0 day
# Mus musculus [3] = test: Antiinflammatory activity against DSS-induced ulcerative colitis BALB/c mouse assessed as attenuation of colonic length reduction at 0.25 mg/kg, po for 5 days and measured after 12 days; type: functional, organism-based; conditions: time 12.0 day
# [4] = target: T1, Prostaglandin G/H synthase 1 (Ovis aries, UniProt P05979); test: Inhibition of sheep COX-1 using arachidonic acid as substrate pretreated for 5 mins followed by substrate addition and measured after 2 mins by fluorescence based analysis
# T1 sequence (P05979 whole entry): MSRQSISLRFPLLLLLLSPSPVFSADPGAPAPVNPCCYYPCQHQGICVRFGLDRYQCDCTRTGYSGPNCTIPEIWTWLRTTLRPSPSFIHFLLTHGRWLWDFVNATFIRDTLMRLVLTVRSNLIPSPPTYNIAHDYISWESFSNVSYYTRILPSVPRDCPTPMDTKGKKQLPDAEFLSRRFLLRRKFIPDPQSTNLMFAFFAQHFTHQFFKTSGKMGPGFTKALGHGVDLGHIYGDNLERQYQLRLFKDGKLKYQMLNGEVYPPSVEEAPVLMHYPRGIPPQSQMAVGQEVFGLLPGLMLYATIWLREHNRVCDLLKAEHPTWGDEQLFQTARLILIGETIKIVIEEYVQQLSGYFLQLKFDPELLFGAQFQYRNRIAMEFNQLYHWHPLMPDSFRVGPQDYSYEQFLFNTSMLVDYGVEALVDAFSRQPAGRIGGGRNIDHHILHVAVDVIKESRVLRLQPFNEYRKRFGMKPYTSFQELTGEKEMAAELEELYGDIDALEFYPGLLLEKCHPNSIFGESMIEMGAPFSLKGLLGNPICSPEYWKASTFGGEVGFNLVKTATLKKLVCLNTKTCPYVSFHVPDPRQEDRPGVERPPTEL
# RAW264.7 [5] = test: Inhibition of LPS-induced NFkappaB activation in mouse RAW264.7 cells assessed as inhibition of IkappaBalpha phosphorylation level preincubated for 1 hr followed by LPS stimulation and measured after 30 mins by Westernblot analysis; type: cell-based; conditions: dose 10-30 µM, time 1.5 hrs
# Mus musculus [6] = test: Antiinflammatory activity against DSS-induced ulcerative colitis BALB/c mouse assessed as amelioration of inflammatory cell infiltration at 0.25 mg/kg, po for 5 days and measured after 12 days; type: functional, organism-based; conditions: time 12.0 day
# RAW264.7 [7] = test: Inhibition of MAPK signalling pathway in LPS induced mouse RAW264.7 cells assessed as effect on ERK phosphorylation level at 10 to 30 uM preincubated for 1 hr followed by LPS stimulation and measured after 30 mins by Westernblot analysis; type: cell-based; conditions: dose 10-30 µM, time 1.5 hrs
# [8] = target: NACHT, LRR and PYD domains-containing protein 3 (Mus musculus) (UniProt Q8R4B8); test: Inhibition of NLRP3 inflammasome in LPS-induced mouse RAW264.7 cells assessed as reduction in NLRP3 activation at 10 to 30 uM primed with LPS for 4.5 hs followed by incubation with compound for 1 hr and later stimulation with ATP for 30 mins by Western blot analysis; type: cell-based; conditions: dose 10-30 µM, time 1.5 hrs
# NACHT, LRR and PYD domains-containing protein 3 (Mus musculus), sequence (Q8R4B8 whole entry, the tested form may be a part): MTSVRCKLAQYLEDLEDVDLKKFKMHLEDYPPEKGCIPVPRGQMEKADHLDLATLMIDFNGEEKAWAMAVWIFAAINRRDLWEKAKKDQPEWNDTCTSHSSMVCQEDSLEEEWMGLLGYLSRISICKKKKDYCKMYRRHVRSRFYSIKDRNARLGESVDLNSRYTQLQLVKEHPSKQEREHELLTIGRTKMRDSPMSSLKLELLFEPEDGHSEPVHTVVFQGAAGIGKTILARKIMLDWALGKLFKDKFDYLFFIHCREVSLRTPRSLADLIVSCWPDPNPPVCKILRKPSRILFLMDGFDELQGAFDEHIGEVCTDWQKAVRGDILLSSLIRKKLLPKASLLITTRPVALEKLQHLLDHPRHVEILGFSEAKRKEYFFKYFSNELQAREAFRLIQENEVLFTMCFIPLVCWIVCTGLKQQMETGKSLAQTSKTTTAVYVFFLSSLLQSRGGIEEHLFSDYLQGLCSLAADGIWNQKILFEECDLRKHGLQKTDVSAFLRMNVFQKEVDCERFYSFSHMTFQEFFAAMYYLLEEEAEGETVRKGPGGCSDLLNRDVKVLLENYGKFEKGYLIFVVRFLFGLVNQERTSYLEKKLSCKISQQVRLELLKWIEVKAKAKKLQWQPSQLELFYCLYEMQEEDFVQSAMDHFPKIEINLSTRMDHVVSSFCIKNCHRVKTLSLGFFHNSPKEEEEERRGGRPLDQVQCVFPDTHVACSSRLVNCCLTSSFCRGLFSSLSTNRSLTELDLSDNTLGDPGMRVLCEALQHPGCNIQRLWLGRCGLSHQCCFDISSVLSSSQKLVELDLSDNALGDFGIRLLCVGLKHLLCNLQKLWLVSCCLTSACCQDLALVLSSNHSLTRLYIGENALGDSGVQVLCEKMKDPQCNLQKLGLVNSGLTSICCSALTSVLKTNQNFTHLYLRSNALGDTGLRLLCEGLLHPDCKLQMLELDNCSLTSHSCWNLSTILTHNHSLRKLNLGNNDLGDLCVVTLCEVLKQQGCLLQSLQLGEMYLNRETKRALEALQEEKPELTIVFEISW
# Mus musculus [9] = test: Protection against DSS-induced ulcerative colitis BALB/c mouse assessed as recovery of cell matrix development at 0.25 mg/kg, po for 5 days and measured after 12 days by H and E staining based analysis; type: functional, organism-based; conditions: time 12.0 day
# RAW264.7 [10] = test: Antiinflammatory activity in LPS-induced mouse RAW264.7 cells assessed as downregulation of IL-6 secretion preincubated for 1 hr followed by LPS stimulation and measured after 24 hrs by ELISA method; type: functional, cell-based; conditions: dose 2-30 µM, time 25.0 hrs
structure (smiles),measurement,setting,value
COc1ccccc1C1=Nn2c(Cc3ccccc3Nc3c(Cl)cccc3Cl)nnc2SC1,inhibition,RAW264.7 [1],inactive
same,Activity,Mus musculus [2],Active
same,Activity,Mus musculus [3],Active
same,IC50,[4],26.3 µM
same,inhibition,RAW264.7 [5],Dose-Dependent Effect
same,Activity,Mus musculus [6],Active
same,inhibition,RAW264.7 [7],inactive
same,inhibition,[8],Active
same,Activity,Mus musculus [9],Active
same,Activity,RAW264.7 [10],Dose-Dependent Effect
